Literature values, collected in patent publication US20170326147A1, “INHIBITING BLOOD PRESSURE DROP IN THE TREATMENT OF ERECTILE DYSFUNCTION” (FORMUREX, INC., priority 2014, published 2017).
Structures can show the parent of a compound that is named as a salt.

Columns and labels:
plasma proteins = details: independent of total drug concentration

SMILES | bound to plasma proteins (plasma proteins) | Tmax average, fasting subjects (fasting) | delay of mean Tmax by food in the stomach (fed) | bioavailability (mean absolute), oral administration (oral, absorption through the digestive tract)
CCCc1nn(C)c2c(=O)[nH]c(-c3cc(S(=O)(=O)N4CCNCC4)ccc3OCC)nc12 [N-desmethyl metabolite, N-desmethyl sildenafil] | approximately 96% |  |  | 
CCCc1nn(C)c2c(=O)[nH]c(-c3cc(S(=O)(=O)N4CCN(C)CC4)ccc3OCC)nc12 [sildenafil citrate] | approximately 96% | about 1 hr | about 1.1 hr | about 40%
